# Where a name gives a salt, the structure may show the parent alone.
# Legend:
# [1] = tested on: MCF7 breast adenocarcinoma; experiment: Cytotoxic effects, MCF7; format: cell-based, human
# [2] = tested on: HCT116 tumor; experiment: HCT116 xenograft tumor growth in NOD/SCID mice; format: in vivo; conditions: oral administration, 30 mg/kg
# Method: The substituted Tricyclic Benzimidazoles of the present invention are useful as anti-cancer agents due to their ability to reduce tumor growth in vivo in mammals. Various well-accepted animal models exist for cancer. By way of example, antitumor activity can be evaluated in vivo in murine xenograft models. Briefly, female mice, NOD/SCID, 5-6 weeks old, were used for the study. On the 1st experimental day, 5*10^6 HCT116 cells were suspended in 0.1 ml 0.9% NaCl+Matrigel® (BD Biosciences) (1:1, v:v) and were injected subcutaneously, on the right side just above the groin. As the tumor growth was progressing, the tumor size was measured every day, and the tumor volume was computed from the formula: TV=(a*a*b)/2 in mm3, where a is the short axis in mm, and b is the long axis in mm. When the average tumor volume reached and exceeded 100 mm3, mice were randomized into uniform groups and subjected to the compound administrations. The administration of the compound was performed and continued according to the experimental schedule.
# The tumor volume was monitored throughout the study and the tumor growth inhibition (TGI) was computed using the following formula: TGI [%]=((Av Norm TGC−Av Norm TGT)/Av Norm TGC)×100, where Av Norm TGC is the mean (average) normalized tumor growth of the control group, and Av Norm TGT is the mean (average) normalized tumor growth of the treated group. […]
# [3] = tested on: SW480 cells; experiment: MTS viability assay, SW480; format: cell-based; conditions: Homo sapiens, SW480, 72 hour incubation, read-out: IC50 [μM] SW-480 ED50
# Text: The viability of CDK8 expressing cells can be evaluated using a tetrazolium salt reduction cell-based assay. In viable cells this colorimetric assay can measure mitochondrial reduction of a tetrazolium component (MTS) into an […] formazan product. For MTS viability assay, human colon cancer cell lines were used (SW480 and HCT116 cell lines), containing elevated levels of CDK8 protein and highly dependent on its expression for proliferation [see, Firenstein et al. Nature 455 (25):547-551, (2008)]. These cell lines were used to determine the activity of the compounds provided herein to inhibit CDK8 in intact cells. Human tumor cell lines were obtained from ATCC (Rockville Md. USA). In each case, and by methods known to those practiced in the art of cell culture, vaiability was measured after 72 hour incubation with the compounds provided herein using a standard MTS protocol (CellTiter 96® AQueous Non-Radioactive Cell Proliferation Assay).
# Briefly, cells were plated at 10,000-20,000 cells per well in DMEM medium supplemented with 10% fetal bovine serum. The compound plate was set up by aliquoting into column 1 of a 96-well plate, the negative control (DMSO), aliquoting into column 12 the positive control, and titrating the test compound in serial dilutions into columns 2-11. An aliquot from each well of the compound plate was transferred to the plated cells and then incubated at 37° C. in 5% CO2. 20 μL of MTS tetrazolium was added to each well of optical plate and the cells were incubated at 37° C. in 5% CO2 for 2 hours. The absorbance was measured at 490 nm using a microplate reader.
# [4] = target: T1, CDK5/p25 (Homo sapiens, UniProt Q00535); experiment: ADP-Glo Kinase Assay, CDK5/p25; format: biochemical; conditions: read-out: % inhibition at 1 μM CDK5/p25; further: ATP at apparent Km (12 µM)
# T1 construct: purchased Millipore, Billerica, Mass., USA
# Method: (§1) Testing of the compounds described in this invention was carried out using the ADP-Glo™ Kinase Assay from Promega Corporation (Madison, Wis., USA).
# (§2) The ADP-Glo™ Kinase Assay is a luminescent ADP detection assay to measure kinase activity by quantifying the amount of ADP produced during a kinase reaction. The kinase assay is performed in kinase assay buffer (5 mM MOPS, pH 7.5, 5 mM MgCl2, 0.4 mM EDTA, 1.5 mM DTT). Test samples initially dissolved in DMSO at 10 mM were diluted with the assay buffer to 1000 nM. A 30 μL volume/well of a mixture of substrates containing ATP (final ATP concentration in each kinase assay was equal to its apparent ATP Km).
# (§3) The assay was performed in two steps: first, after the kinase reaction, an equal volume of ADP-Glo™ Reagent was added to terminate the kinase reaction and deplete the remaining ATP. Second, the Kinase Detection Reagent was added to simultaneously convert ADP to ATP and allowed the newly synthesized ATP to be measured using a luciferase/luciferin reaction. The luminescent signal generated was proportional to the ADP concentration produced and was correlated with kinase activity.
# [5] = target: T2, CDK7/CyclinH/MAT1 (Homo sapiens, UniProt P50613); experiment: ADP-Glo Kinase Assay, CDK7/CyclinH/MAT1; format: biochemical; conditions: read-out: % inhibition at 1 μM CDK7/CyclinH/MAT1
# T2 construct: purchased Millipore, Billerica, Mass., USA
# Method: as §1, §2, §3
# [6] = tested on: PC-3 adenocarcinoma prostate; experiment: Cytotoxic effects, PC-3; format: cell-based, human
# [7] = tested on: HepG2 hepatocarcinoma; experiment: Cytotoxic effects, HepG2; format: cell-based, human
# [8] = target: T3, CDK8/CyclinC (Homo sapiens, UniProt P49336); experiment: ADP-Glo Kinase Assay, CDK8/CyclinC; format: biochemical; conditions: read-out: % inhibition at 1 μM CDK8/CyclinC; further: ATP at apparent Km (53 µM)
# T3 construct: purchased ProQinase, Freiburg, Germany
# Method: as §1, §2, §3
# [9] = tested on: A549 lung carcinoma; experiment: Cytotoxic effects, A549; format: cell-based, human
# [10] = tested on: SK-MEL5 melanoma; experiment: Cytotoxic effects, SK-MEL5; format: cell-based, human
# T1 sequence (Q00535 whole entry): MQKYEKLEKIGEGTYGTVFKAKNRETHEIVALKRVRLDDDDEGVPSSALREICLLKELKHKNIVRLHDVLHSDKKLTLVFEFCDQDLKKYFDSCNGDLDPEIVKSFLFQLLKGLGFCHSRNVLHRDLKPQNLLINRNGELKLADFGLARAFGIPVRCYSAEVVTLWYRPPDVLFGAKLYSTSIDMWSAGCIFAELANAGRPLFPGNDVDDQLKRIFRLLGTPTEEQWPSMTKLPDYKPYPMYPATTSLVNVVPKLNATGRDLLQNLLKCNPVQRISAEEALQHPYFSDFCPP
# T1 sequence (Q15078 99-307 partner limits assumed): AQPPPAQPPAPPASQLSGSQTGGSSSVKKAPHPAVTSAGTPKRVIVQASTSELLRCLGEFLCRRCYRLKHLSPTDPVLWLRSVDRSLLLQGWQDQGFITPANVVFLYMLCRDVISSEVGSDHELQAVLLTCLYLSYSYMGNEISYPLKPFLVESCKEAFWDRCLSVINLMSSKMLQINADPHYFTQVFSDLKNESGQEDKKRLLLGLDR
# T2 sequence (P50613 whole entry): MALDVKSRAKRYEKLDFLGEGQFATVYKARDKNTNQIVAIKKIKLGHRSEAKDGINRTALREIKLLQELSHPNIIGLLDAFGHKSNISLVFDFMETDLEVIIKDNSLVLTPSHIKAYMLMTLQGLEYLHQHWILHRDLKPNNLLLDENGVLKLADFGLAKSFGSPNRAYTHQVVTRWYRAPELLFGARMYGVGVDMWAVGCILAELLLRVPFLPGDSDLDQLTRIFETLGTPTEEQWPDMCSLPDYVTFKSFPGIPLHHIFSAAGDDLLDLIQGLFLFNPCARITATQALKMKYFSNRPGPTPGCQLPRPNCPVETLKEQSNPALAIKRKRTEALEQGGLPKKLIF
# T2 sequence (P51946 whole entry partner): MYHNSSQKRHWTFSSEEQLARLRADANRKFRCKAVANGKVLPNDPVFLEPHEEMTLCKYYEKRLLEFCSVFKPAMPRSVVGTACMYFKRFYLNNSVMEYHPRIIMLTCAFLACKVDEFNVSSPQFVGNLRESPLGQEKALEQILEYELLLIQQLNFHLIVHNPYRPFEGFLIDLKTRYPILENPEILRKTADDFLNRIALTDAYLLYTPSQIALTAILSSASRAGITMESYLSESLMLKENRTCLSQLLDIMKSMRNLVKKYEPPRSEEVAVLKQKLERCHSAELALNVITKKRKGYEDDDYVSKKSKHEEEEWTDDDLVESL
# T2 sequence (P51948 whole entry partner): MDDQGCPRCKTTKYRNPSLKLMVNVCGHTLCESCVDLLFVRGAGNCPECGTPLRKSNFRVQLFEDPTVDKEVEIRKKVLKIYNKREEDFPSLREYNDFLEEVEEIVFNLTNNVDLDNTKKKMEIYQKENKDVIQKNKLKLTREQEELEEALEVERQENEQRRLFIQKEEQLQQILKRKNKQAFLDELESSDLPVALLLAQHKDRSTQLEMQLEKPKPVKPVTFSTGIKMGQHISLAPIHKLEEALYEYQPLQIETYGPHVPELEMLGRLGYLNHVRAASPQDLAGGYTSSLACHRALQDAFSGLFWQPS
# T3 sequence (P49336 whole entry): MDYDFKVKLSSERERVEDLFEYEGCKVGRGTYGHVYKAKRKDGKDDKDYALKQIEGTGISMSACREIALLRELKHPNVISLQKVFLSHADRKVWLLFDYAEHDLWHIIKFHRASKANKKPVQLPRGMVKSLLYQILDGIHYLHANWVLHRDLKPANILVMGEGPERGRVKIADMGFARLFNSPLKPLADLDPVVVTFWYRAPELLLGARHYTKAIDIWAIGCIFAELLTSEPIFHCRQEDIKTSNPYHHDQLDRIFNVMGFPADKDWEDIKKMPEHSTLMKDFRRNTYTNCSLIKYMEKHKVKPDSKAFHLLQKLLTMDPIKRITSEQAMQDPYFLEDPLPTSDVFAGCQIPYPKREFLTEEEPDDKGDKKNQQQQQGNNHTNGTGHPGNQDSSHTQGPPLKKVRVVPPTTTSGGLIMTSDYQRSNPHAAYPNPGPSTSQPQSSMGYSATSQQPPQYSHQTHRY
# T3 sequence (P24863 whole entry partner): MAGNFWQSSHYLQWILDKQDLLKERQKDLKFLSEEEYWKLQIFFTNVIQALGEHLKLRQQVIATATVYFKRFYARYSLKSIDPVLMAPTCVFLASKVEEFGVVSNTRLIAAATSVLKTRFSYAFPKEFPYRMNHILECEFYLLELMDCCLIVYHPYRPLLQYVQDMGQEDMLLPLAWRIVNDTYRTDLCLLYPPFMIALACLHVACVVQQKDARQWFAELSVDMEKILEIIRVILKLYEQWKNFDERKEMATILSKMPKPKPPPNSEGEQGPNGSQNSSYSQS
Compound,cytotoxic effects [1],HCT116 tumor growth (FIG. 1) [2],IC50 [3] [µM],inhibition at 1 µM [4] [%],inhibition at 1 µM [5] [%],cytotoxic effects [6],cytotoxic effects [7],inhibition at 1 µM [8] [%],cytotoxic effects [9],cytotoxic effects [10]
Cc1c(Br)c(Br)c2c3c1nc(N1CCNCC1)n3CCC2 [Example 1K],showed cytotoxic effects,Inhibition of HCT116 tumor growth,1.1,13,0,showed cytotoxic effects,showed cytotoxic effects,76,showed cytotoxic effects,showed cytotoxic effects
"Brc1c(Br)c2c3c(nc(N4CCNCC4)n3CCC2)c1Br [Example 6, 7,8,9-tribromo-2-(piperazin-1-yl)-5,6-dihydro-4H-imidazo[4,5,1-ij]quinoline maleate]",showed cytotoxic effects,Inhibition of HCT116 tumor growth,1,39,21,showed cytotoxic effects,showed cytotoxic effects,96,showed cytotoxic effects,showed cytotoxic effects

# Source: patent US9745299B2, “Substituted tricyclic benzimidazoles as kinase inhibitors” (SELVITA SA, priority 2012, dated 2017)
